Data from article PMC10037270 (Journal of medicinal chemistry, 2023).

Tests used:
[1] = target: T1, μOR (Homo sapiens, UniProt P35372); assay type: binding; details: screen at 1 μM, [3H]DAMGO
[2] = target: κOR (Homo sapiens, UniProt P41145); assay type: binding
[3] = target: HA-mouse μOR (Mus musculus, UniProt P42866); assay: GloSensor cAMP inhibition assay at μOR in transfected HEK cells; assay type: cell-based; details: HEK293, read-out: cAMP inhibition at μOR Emax % ± SEM
[4] = target: T1, μOR; assay type: cell-based; details: at 10 μM, DAMGO as control
[5] = tested on: C57BL/6 mice; assay: Warm-water tail-flick assay; assay type: in vivo
[6] = tested on: C57BL/6 mice; assay: Hot-plate assay; assay type: in vivo
[7] = tested on: C57BL/6 mice; assay: Accelerating rotarod assay; assay type: in vivo
[8] = naloxone 10 mg/kg i.p. 15 min before 33 100 mg/kg s.c.

Sequence of HA-mouse μOR (P42866 whole entry): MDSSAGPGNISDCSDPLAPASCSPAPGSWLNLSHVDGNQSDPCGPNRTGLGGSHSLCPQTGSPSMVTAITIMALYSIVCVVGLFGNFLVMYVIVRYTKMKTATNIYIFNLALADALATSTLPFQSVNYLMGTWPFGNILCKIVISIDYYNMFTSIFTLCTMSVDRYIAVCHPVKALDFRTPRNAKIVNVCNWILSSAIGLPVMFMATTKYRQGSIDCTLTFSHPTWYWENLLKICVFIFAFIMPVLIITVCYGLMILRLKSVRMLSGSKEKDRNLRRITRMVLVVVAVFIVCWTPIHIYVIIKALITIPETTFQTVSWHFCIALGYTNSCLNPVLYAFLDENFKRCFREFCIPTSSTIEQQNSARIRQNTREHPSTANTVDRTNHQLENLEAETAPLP
T1 sequence (P35372 whole entry): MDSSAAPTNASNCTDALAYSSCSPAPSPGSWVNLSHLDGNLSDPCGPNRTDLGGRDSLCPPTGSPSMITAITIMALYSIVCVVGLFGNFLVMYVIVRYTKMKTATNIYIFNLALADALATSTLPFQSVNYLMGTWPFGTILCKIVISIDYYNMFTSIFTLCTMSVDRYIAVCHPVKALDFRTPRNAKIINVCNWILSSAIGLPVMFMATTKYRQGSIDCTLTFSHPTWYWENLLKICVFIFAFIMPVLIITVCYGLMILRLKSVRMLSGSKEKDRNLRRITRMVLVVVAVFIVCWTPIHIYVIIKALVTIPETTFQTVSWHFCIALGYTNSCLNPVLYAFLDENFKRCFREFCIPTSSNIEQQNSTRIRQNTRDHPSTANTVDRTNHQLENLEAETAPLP
Sequence of κOR (P41145 whole entry): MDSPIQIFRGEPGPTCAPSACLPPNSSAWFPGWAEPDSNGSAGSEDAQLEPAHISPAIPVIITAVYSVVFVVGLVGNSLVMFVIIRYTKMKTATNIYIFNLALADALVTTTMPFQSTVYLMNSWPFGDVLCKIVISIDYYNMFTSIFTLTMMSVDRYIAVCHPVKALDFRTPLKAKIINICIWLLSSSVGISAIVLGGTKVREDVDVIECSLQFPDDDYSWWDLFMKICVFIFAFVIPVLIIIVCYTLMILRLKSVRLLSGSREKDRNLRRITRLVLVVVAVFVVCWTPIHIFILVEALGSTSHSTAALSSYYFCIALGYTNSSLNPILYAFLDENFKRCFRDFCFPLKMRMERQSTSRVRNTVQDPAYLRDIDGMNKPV

C/C=C1/CN2CC[C@@]34c5cc(O)c(Br)cc5N(C)[C@]35OC[C@@]4(C(=O)OC)[C@H]1C[C@H]25 [Compound 19, 11-Bromoakuammine]
radioligand displacement at μOR [1]: > 50%
radioligand displacement at κOR [2]: > 50%
Emax [3]: 40 ± 5%

C/C=C1/CN2CC[C@@]34c5ccccc5N(C)[C@]35OC[C@@]4(C(=O)OC)[C@H]1C[C@H]25 [Compound 2, Pseudoakuammigine, reference compound]
Emax [3]: 82 ± 7%

C/C=C1/CN2CC[C@@]34c5cc(O)ccc5N(C)[C@]35OC[C@@]4(C(=O)OC)[C@H]1C[C@H]25 [Compound 1, Akuammine, reference compound]
Emax [3]: 62 ± 6%

C/C=C1/CN2CC[C@@]34c5cc(O)c(I)cc5N(C)[C@]35OC[C@@]4(C(=O)OC)[C@H]1C[C@H]25 [Compound 20, 11-Iodoakuammine]
radioligand displacement at μOR [1]: > 50%
radioligand displacement at κOR [2]: > 50%
Emax [3]: 32 ± 6%

C[C@@H](NC(=O)[C@@H](N)Cc1ccc(O)cc1)C(=O)NCC(=O)N(C)[C@@H](Cc1ccccc1)C(=O)NCCO [DAMGO, (2S)-2-[[2-[[(2R)-2-[[(2S)-2-Amino-3-(4-hydroxyphenyl)propanoyl]amino]propanoyl]amino]acetyl]-methylamino]-N-(2hydroxyethyl)-3-phenylpropanamide, reference compound]
Emax [3]: 96 ± 4%

C/C=C1\CN2CC[C@@]34c5ccccc5N(CCc5ccccc5)[C@]35OC[C@@]4(C(=O)OC)[C@H]1C[C@H]25 [Compound 33, N-1-Phenethyl psuedoakuammigine]
Emax [3]: 76 ± 5%
recruitment of βArr2 to the μOR [4]: < 10%
ED50 ([5]; Mus musculus, sc, read-out: ED50 tail-flick assay): 77.6 mg/kg
antinociception versus morphine (10 mg/kg), peak effect and duration ([5]; mice, 100 mg/kg s.c., tail-flick): comparable to that of the morphine
antinociceptive effect in tail-flick assay ([5]; mice, 80 and 100 mg/kg s.c.): exhibited antinociceptive effect
antinociceptive effect after naloxone pretreatment, tail-flick [5, 8]: completely blocked by naloxone
antinociceptive effect in hot-plate assay ([6]; mice, 80 and 100 mg/kg s.c.): exhibited antinociceptive effect
antinociceptive effect after naloxone pretreatment, hot-plate [6, 8]: completely blocked by naloxone
effect on locomotor activity, latency to fall ([7]; 65 mg/kg and 80 mg/kg s.c., accelerating rotarod 4-40 rpm over 300 s): significantly impaired motor activity
effect on motor coordination ([7]; high doses (80, 100 mg/kg, s.c.)): impair motor coordination

C/C=C1\CN2CC[C@@]34c5ccccc5N(CC)[C@]35OC[C@@]4(C(=O)OC)[C@H]1C[C@H]25 [Compound 31, N-1-Ethyl psuedoakuammigine]
Emax [3]: 59 ± 4%

C/C=C1\CN2CC[C@@]34c5ccccc5N(Cc5ccccc5)[C@]35OC[C@@]4(C(=O)OC)[C@H]1C[C@H]25 [Compound 32, N-1-Benzyl psuedoakuammigine]
Emax [3]: 63 ± 4%
